Results as given in patent US9238034B2, “FN14 antagonists and therapeutic uses thereof” (THE TRANSLATIONAL GENOMICS RESEARCH INSTITUTE, priority 2013, dated 2016).

Biological target: T1, TWEAK (Homo sapiens, UniProt O43508)
T1 sequence (O43508 94-249 limits assumed): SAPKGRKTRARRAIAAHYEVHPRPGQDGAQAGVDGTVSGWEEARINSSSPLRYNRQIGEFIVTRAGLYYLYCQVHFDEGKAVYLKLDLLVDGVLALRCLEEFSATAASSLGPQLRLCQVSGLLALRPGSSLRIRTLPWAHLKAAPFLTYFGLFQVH
Experiment: Surface Plasmon Resonance assay, TWEAK sensor surface
Type: binding
Settings: SPR, 0 to 50 μM
Method: Surface Plasmon Resonance (SPR) Assay. The binding affinity of at least one of the compounds (e.g., L524-0366) to TWEAK and Fn14-Fx was determined using a BIAcore T100 optical biosensor (GE Healthcare) at 25 degrees Celsius at the Arizona Proteomics Consortium. Recombinant human TWEAK (20 μg/mL in 10 mM HEPES pH 7.4, 150 mM NaCl, 3 mM EDTA, 0.05% Tween 20) or recombinant human Fn14-Fc (20 μg/mL in 10 mM NaOAc pH 4.0) were covalently coupled to separate flow cells on a BIAcore CM5 sensor chip using standard amine coupling chemistry as per manufacturer's protocol. Final immobilization levels were 6000 Response Units (RU) for TWEAK and 13,000 RU for FN14-Fc. The first flow path of the chip was treated with the same coupling and blocking reagents without protein and was used as a reference for each binding cycle. Functionality of the TWEAK and the Fn14-Fc sensor surfaces were verified by injecting Fn14-Fc and TWEAK over them respectively. Serial dilutions of L524-0366 or cycloheximide (control) from 0 to 50 μM were made in running buffer (10 mM HEPES pH 7.4, 150 mM NaCl, 3 mM EDTA, 1% DMSO). […] Equilibrium dissociation constants for the small molecules were calculated by fitting the double reference subtracted data to Req=((CRmax)/(KD+C))+RI, where RI is the bulk refractive index contribution.

- binding to TWEAK: not to the TWEAK surface
SMILES: O=C(c1cn(-c2cccc(Cl)c2)nn1)N1CCSCC1 [Compound L524-0366]
